Laboratory results reported in patent US9676766B2, “Triazolopyridines” (BAYER INTELLECTUAL PROPERTY GMBH, priority 2009, dated 2017).

molecular target: T1, human kinase Mps-1 (Homo sapiens, UniProt P33981); assay: Mps-1 Kinase Assay (TR-FRET); assay type: biochemical; conditions: N-terminally GST-tagged human full length recombinant Mps-1; 10 μM ATP; 1 μM biotinylated peptide substrate; 60 min at 22° C.; read-out: MPS1 Inhibition, IC50 in M
T1 construct: N-terminally GST-tagged human full length recombinant Mps-1 kinase; purchased Invitrogen, Karslruhe, Germany PV4071
T1 sequence (P33981 1-857): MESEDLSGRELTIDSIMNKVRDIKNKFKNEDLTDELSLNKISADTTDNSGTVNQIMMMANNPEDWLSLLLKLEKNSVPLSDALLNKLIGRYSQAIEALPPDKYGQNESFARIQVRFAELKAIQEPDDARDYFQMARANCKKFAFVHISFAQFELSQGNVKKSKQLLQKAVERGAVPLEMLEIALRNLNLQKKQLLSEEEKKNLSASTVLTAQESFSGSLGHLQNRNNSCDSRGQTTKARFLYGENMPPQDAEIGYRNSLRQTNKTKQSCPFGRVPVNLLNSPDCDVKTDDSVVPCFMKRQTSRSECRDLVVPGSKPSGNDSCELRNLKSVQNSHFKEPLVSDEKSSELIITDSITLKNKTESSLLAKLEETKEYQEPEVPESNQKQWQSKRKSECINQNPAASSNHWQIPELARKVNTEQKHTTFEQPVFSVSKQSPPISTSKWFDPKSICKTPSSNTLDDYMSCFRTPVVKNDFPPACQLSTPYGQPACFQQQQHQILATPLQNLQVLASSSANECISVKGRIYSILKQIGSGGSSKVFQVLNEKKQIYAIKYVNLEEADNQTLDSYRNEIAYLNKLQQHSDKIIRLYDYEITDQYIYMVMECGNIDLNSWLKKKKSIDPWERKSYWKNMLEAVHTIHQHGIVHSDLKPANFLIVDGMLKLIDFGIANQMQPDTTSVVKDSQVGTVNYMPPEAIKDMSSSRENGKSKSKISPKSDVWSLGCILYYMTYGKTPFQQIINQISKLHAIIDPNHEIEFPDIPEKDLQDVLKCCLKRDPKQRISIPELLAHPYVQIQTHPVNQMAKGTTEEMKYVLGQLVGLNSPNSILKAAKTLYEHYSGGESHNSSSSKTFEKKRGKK

Row | Compound | IC50 [nM]
1 | COC(C(=O)Nc1ccc(-c2ccc3nc(Nc4ccccc4C(F)(F)F)nn3c2)cc1)c1ccccc1 (racemic) [Example 5.9, Rac-2-methoxy-2-phenyl-N-[4-(2-{[2-(trifluoromethyl)phenyl]amino}[1,2,4]-triazolo[1,5-a]pyridin-6-yl)phenyl]acetamide] | 110
2 | O=C(CC1CC1)Nc1ccc(-c2ccc3nc(Nc4ccccc4C(F)(F)F)nn3c2)cc1 [Example 5.3, 2-cyclopropyl-N-[4-(2-{[2-(trifluoromethyl)phenyl]amino}[1,2,4]triazolo[1,5-a]pyridin-6-yl)phenyl]acetamide] | 81
3 | CN1CCN(CC(=O)Nc2ccc(-c3ccc4nc(Nc5ccccc5C(F)(F)F)nn4c3)cc2)CC1 [Example 5.4, 2-(4-methylpiperazin-1-yl)-N-[4-(2-{[2-(trifluoromethyl)phenyl]amino}[1,2,4]triazolo[1,5-a]pyridin-6-yl)phenyl]acetamide] | 2200
4 | O=C(CN1CCOCC1)Nc1ccc(-c2ccc3nc(Nc4ccccc4C(F)(F)F)nn3c2)cc1 [Example 5.5, 2-(morpholin-4-yl)-N-[4-(2-{[2-(trifluoromethyl)phenyl]amino}[1,2,4]triazolo[1,5-a]pyridin-6-yl)phenyl]acetamide] | 3300
5 | N#Cc1ccccc1Nc1nc2ccc(-c3cccc(C(=O)Nc4ccccc4)c3)cn2n1 [Example 2.1, 3-{2-[(2-cyanophenyl)amino][1,2,4]triazolo[1,5-a]pyridin-6-yl}-N-phenylbenzamide] | 65
6 | O=C(Nc1ccc(-c2ccc3nc(Nc4ccccc4C(F)(F)F)nn3c2)cc1)C1CC1 [Example 5.2, N-[4-(2-{[2-(trifluoromethyl)phenyl]amino}[1,2,4]triazolo[1,5-a]pyridin-6-yl)phenyl]cyclopropanecarboxamide] | 180
7 | CO[C@H](C(=O)Nc1ccc(-c2ccc3nc(Nc4ccccc4C#N)nn3c2)cc1)c1ccccc1 (stereo in doubt) [Example 3.2, N-(4-{2-[(2-cyanophenyl)amino][1,2,4]triazolo[1,5-a]pyridin-6-yl}phenyl)-2-methoxy-2-phenylacetamide] | 3.4
8 | N#Cc1ccccc1Nc1nc2ccc(-c3ccc(NC(=O)Nc4ccccc4)cc3)cn2n1 [Example 3.7, 1-(4-{2-[(2-cyanophenyl)amino][1,2,4]triazolo[1,5-a]pyridin-6-yl}phenyl)-3-phenylurea] | 12
9 | COc1ccccc1Nc1nc2ccc(-c3ccc(NC(=O)C4CC4)cc3)cn2n1 [Example 4.3, N-(4-{2-[(2-methoxyphenyl)amino][1,2,4]triazolo[1,5-a]pyridin-6-yl}phenyl)cyclopropanecarboxamide] | 39
10 | N#Cc1ccccc1Nc1nc2ccc(-c3ccc(NC(=O)Cc4ccc(C(F)(F)F)cc4)cc3)cn2n1 [Example 3.1, N-(4-{2-[(2-cyanophenyl)amino][1,2,4]triazolo[1,5-a]pyridin-6-yl}phenyl)-2-[4-(trifluoromethyl)phenyl]acetamide] | 8.2
11 | O=C(Cc1ccccc1)Nc1ccc(-c2ccc3nc(Nc4ccccc4C(F)(F)F)nn3c2)cc1 [Example 5.1, 2-phenyl-N-[4-(2-{[2-(trifluoromethyl)phenyl]amino}[1,2,4]triazolo[1,5-a]pyridin-6-yl)phenyl]acetamide] | 7.1

Now from value to molecule:

Row | IC50 [nM] | Compound
12 | 2.9 | N#Cc1ccccc1Nc1nc2ccc(-c3cccc(C(=O)NC4CCCC4)c3)cn2n1 [Example 9.2, 3-{2-[(2-cyanophenyl)amino][1,2,4]triazolo[1,5-a]pyridin-6-yl}-N-cyclopentylbenzamide]
13 | 290 | COc1ccccc1Nc1nc2ccc(-c3cccc(NS(=O)(=O)C4CC4)c3)cn2n1 [Example 8.4, N-(3-{2-[(2-methoxyphenyl)amino][1,2,4]triazolo[1,5-a]pyridin-6-yl}phenyl)cyclopropanesulfonamide]
14 | 290 | COc1ccccc1Nc1nc2ccc(-c3cccc(NC(=O)c4ccccc4)c3)cn2n1 [Example 8.7, N-(3-{2-[(2-methoxyphenyl)amino][1,2,4]triazolo[1,5-a]pyridin-6-yl}phenyl)benzamide]
15 | 66 | COc1ccccc1Nc1nc2ccc(-c3cccc(NS(=O)(=O)CC4CC4)c3)cn2n1 [Example 8.3, 1-Cyclopropyl-N-(3-{2-[(2-methoxyphenyl)amino][1,2,4]triazolo[1,5-a]pyridin-6-yl}phenyl)methanesulfonamide]
16 | 84 | COc1ccccc1Nc1nc2ccc(-c3cccc(NC(=O)NC4CC4)c3)cn2n1 [Example 8.9, 1-cyclopropyl-3-(3-{2-[(2-methoxyphenyl)amino][1,2,4]triazolo[1,5-a]pyridin-6-yl}phenyl)urea]
17 | 6.5 | COc1ccccc1Nc1nc2ccc(-c3cccc(C(=O)NC4CC4)c3)cn2n1 [Example 10.1, N-cyclopropyl-3-{2-[(2-methoxyphenyl)amino][1,2,4]triazolo[1,5-a]pyridin-6-yl}benzamide]
18 | 45 | COc1ccccc1Nc1nc2ccc(-c3cccc(C(=O)NCc4ccccc4)c3)cn2n1 [Example 10.2, N-benzyl-3-{2-[(2-methoxyphenyl)amino][1,2,4]triazolo[1,5-a]pyridin-6-yl}benzamide]
19 | 270 | COc1ccccc1Nc1nc2ccc(-c3cccc(NC(=O)Nc4cccnc4)c3)cn2n1 [Example 8.12, 1-(3-{2-[(2-methoxyphenyl)amino][1,2,4]triazolo[1,5-a]pyridin-6-yl}phenyl)-3-pyridin-3-ylurea]
20 | 4.4 | N#Cc1ccccc1Nc1nc2ccc(-c3cccc(C(=O)NC4CC4)c3)cn2n1 [Example 9.5, 3-{2-[(2-cyanophenyl)amino][1,2,4]triazolo[1,5-a]pyridin-6-yl}-N-cyclopropylbenzamide]
21 | 620 | COc1ccccc1Nc1nc2ccc(-c3cccc(NC(=O)N4CCN(C)CC4)c3)cn2n1 [Example 8.8, N-(3-{2-[(2-methoxyphenyl)amino][1,2,4]triazolo[1,5-a]pyridin-6-yl}phenyl)-4-methylpiperazine-1-carboxamide]
22 | 360 | COc1ccccc1Nc1nc2ccc(-c3cccc(NS(=O)(=O)c4ccccc4)c3)cn2n1 [Example 8.6, N-(3-{2-[(2-methoxyphenyl)amino][1,2,4]triazolo[1,5-a]pyridin-6-yl}phenyl)benzenesulfonamide]
23 | 440 | COc1ccccc1Nc1nc2ccc(-c3cccc(NC(=O)Nc4ccccc4)c3)cn2n1 [Example 8.5, 1-(3-{2-[(2-methoxyphenyl)amino][1,2,4]triazolo[1,5-a]pyridin-6-yl}phenyl)-3-phenylurea]
24 | 470 | COc1ccccc1Nc1nc2ccc(-c3cccc(NC(=O)NCCN4CCOCC4)c3)cn2n1 [Example 8.13, 1-(3-{2-[(2-methoxyphenyl)amino][1,2,4]triazolo[1,5-a]pyridin-6-yl}phenyl)-3-[2-(morpholin-4-yl)ethyl]urea]
25 | 59 | CN1CCN(C(=O)c2cccc(-c3ccc4nc(Nc5ccccc5C#N)nn4c3)c2)CC1 [Example 9.1, 2-[(6-{3-[(4-methylpiperazin-1-yl)carbonyl]phenyl}[1,2,4]triazolo[1,5-a]pyridin-2-yl)amino]benzonitrile]
26 | 640 | COc1ccccc1Nc1nc2ccc(-c3cccc(NC(=O)N4CCC(N(C)C)CC4)c3)cn2n1 [Example 8.11, 4-(dimethylamino)-N-(3-{2-[(2-methoxyphenyl)amino][1,2,4]triazolo[1,5-a]pyridin-6-yl}phenyl)piperidine-1-carboxamide]
27 | 74 | CN1CCC(NC(=O)c2cccc(-c3ccc4nc(Nc5ccccc5C#N)nn4c3)c2)CC1 [Example 9.3, 3-{2-[(2-cyanophenyl)amino][1,2,4]triazolo[1,5-a]pyridin-6-yl}-N-(1-methylpiperidin-4-yl)benzamide]
28 | 290 | COc1ccccc1Nc1nc2ccc(-c3cccc(NC(=O)Cc4ccccc4)c3)cn2n1 [Example 8.1, N-(3-{2-[(2-methoxyphenyl)amino][1,2,4]triazolo[1,5-a]pyridin-6-yl}phenyl)-2-phenylacetamide]
29 | 100 | COc1ccccc1Nc1nc2ccc(-c3cccc(NC(=O)N4CCOCC4)c3)cn2n1 [Example 8.10, N-(3-{2-[(2-methoxyphenyl)amino][1,2,4]triazolo[1,5-a]pyridin-6-yl}phenyl)morpholine-4-carboxamide]
30 | 59 | COc1ccccc1Nc1nc2ccc(-c3cccc(NC(=O)C4CC4)c3)cn2n1 [Example 8.2, N-(3-{2-[(2-methoxyphenyl)amino][1,2,4]triazolo[1,5-a]pyridin-6-yl}phenyl)cyclopropanecarboxamide]
31 | 21 | N#Cc1ccccc1Nc1nc2ccc(-c3cccc(C(=O)NCc4ccccc4)c3)cn2n1 [Example 9.4, N-benzyl-3-{2-[(2-cyanophenyl)amino][1,2,4]triazolo[1,5-a]pyridin-6-yl}benzamide]
